According to patent US20240197610A1, “CERAMIDE GROWTH PROMOTING AGENT” (TAKASAGO INTERNATIONAL CORPORATION, priority 2020, published 2024):

Test system: late differentiated cultured human keratinocytes (LDKs)
Test: Ceramide growth test in cultured human keratinocytes (LC-ESI-MS/MS quantification of ceramide species)
Type: cell-based
Method: Experiments were conducted using undifferentiated and late differentiated cultured human keratinocytes (KCs). Human keratinocytes were cultured in a serum-free KC growth medium containing 0.07 mM calcium, and collected to be undifferentiated cells when KCs occupied up to about 60% to 70% of the total area of the culture petri dish (about 60% to 70% confluence). KCs were cultured in a serum-free KC growth medium containing 0.07 mM of calcium, and the medium was replaced with DMEM containing 10% fetal bovine serum containing 1.2 mM of calcium, 10 μg/mL insulin, 0.4 μg/mL hydrocortisone, and 50 μg/mL of vitamin C and Ham's F-12 (2:1, v/v) when KCs occupied up to about 70% to 80% of the total area of the culture petri dish (about 70% to 80% confluence), followed by culturing for 8 days. Next, cells cultured for 3 days in a DMEM medium containing 10% fetal bovine serum containing 1.2 mM of calcium, 10 μg/mL insulin, 0.4 μg/mL hydrocortisone, and 50 μg/mL of vitamin C were used as late differentiated cultured human keratinocytes (LDKs).
From the second day of culture to the fourth, sixth, eighth, ninth, and tenth days, the ceramide preparation (I % ceramide NDS solution) prepared in Example 1 was diluted with a medium, filtered with a filter paper having a pore size of 0.45 μm, and 15.9 μL, 79.6 μL, and 397.7 μL (=10 μM, 50 μM, 250 μM) thereof were added, separately. In addition, 79.6 μL of a Blk solution not containing ceramide prepared in Comparative Example 1 was added, followed by culturing.
100 μg of each of the culture solutions prepared above and 100 μmol of an internal standard substance mixture (C17 (carbon number 17)-ceramide NS=N-octadecanoylamino-C17 sphingosine, C17-sphingosine, C17-dihydrosphingosine) were added to a mixed solution of a 0.1 N HCl aqueous solution: chloroform: methanol (volume ratio 1:2:1) and stirred, and then the organic phase of the lower layer was dried in vacuo, and the extraction drying operation was repeated twice. The obtained residue was dissolved in 200 μl of a methanol/acetonitrile equivalent mixture, and analyzed by the following liquid chromatography tandem mass spectrometry (LC-ESI-MS/MS) system (API 3200 QTRAP mass, ABCIEX). […]
10 μL of the extracted sample was analyzed by HPLC (HTS HPLC system manufactured by Shiseido Co., Ltd.) with a reverse phase KINTEX C18 column (2.1×50 mm, ID=2.6 μm). The column was previously equilibrated with a solvent A (MeOH: 0.05% formic acid aqueous solution: 80:20), the lipid was dissolved in a solvent B(2-propanol:0.05% formic acid methanol solution: 99:1), and a mass spectrum was detected in a positive mode by electrospray ionization with a gradient applied at a flow rate of 0.3 ml/min. […]

CCCCCCCCCCCCCCCCCC(=O)N[C@@H](CO)[C@H](O)CCCCCCCCCCCCCCC [ceramide NDS, (2S,3R)-2-octadecanoylaminooctadecane-1,3-diol]
ceramide NSs (acyl chain length 14 to 26) amount (Example 1 preparation added at 10 μM, 50 μM, 250 μM, 10 days culture, p<0.01 vs LDK without ceramide NDS, FIG. 4): significantly increased
ceramide NDSs (different acyl chain lengths of 14 to 26) amount (Example 1 preparation added at 10 μM, 50 μM, 250 μM, 10 days culture, p<0.01 vs LDK without ceramide NDS, FIG. 5): significantly increased
ceramide EOSs (ω-hydroxy acid amide bond of 30 and 32 carbon atoms, esterified with linoleic acid at ω-position) amount (Example 1 preparation added at 10 μM, 50 μM, 250 μM, 10 days culture, p<0.01 vs LDKs without ceramide NDS, FIG. 3): significantly increased
growth of various ceramide species (ceramide preparation added to keratinocyte culture): are grown
